Reference: patent US20220409629A1, “BENZODIAZEPINE DERIVATIVES FOR TREATING A RESPIRATORY SYNCYTIAL VIRUS (RSV) INFECTION” (priority 2019, published 2022)

Columns and labels:
[1] = Rat pharmacokinetics in vivo; details: male Sprague Dawley rats; for AUC(0-t): read-out: PO AUClast
Experimental: The pharmacokinetics of compounds were studied in vivo in rats at doses of 1 mg/kg (IV) and 10 mg/kg (PO).
Male rats (Sprague Dawley) surgically prepared with a jugular vein cannula were treated with experimental compounds via intravenous administration (IV; n=3; 1 mg/kg) or oral administration (PO; n=3; 10 mg/kg). Compounds were formulated as a solution in 40:60 dimethylacetamide:saline (IV administration), a suspension in 1% methyl cellulose (viscosity: 15 cP), 0.1% Tween80 in water (PO administration: Example 3), a solution in 10% DMSO/10% Cremaphor/80% water (PO administration: Examples 4, 11, 21, 23, 25, 26, 32) or a solution in 10% DMSO/20% Cremaphor/70% water (PO administration: Examples 19, 20, 22, 24, 30). […] Serial blood samples were collected via the cannula at 0.02, 0.08, 0.25, 0.5, 1, 2, 4, 6, 8 and 24 h post IV dosing of compound, and at 0.08, 0.25, 0.5, 1, 2, 4, 6, 8 and 24 h post oral dosing of compound, and plasma was prepared by centrifugation and stored immediately at −80° C. Samples were subsequently thawed, prepared for analysis by protein precipitation with acetonitrile, and analysed by tandem LCMS using electrospray ionisation using a matrix-matched calibration curve. PK parameters were calculated from the resulting data.

[2] = Liver microsomal stability, dog; format: in vitro ADME; details: pH 7.4; dog liver microsomes, 0.5 mg/mL protein, 1 μM compound, NADPH; >80% remaining at 45 min denoted >140; read-out: Liver Microsomal Stability: t1/2 (min); dog
Method in brief: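 Pooled liver microsomes (0.5 mg/mL protein) in 0.1 M phosphate pH 7.4 with 1 μM compound (0.25% DMSO), started with 1 mM NADPH at 37° C; sampled 0-45 min, minus-NADPH control 45 min. LC-MS/MS depletion slope gave t1/2 and CLint.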

RSV A2 = assay: RSV plaque reduction assay; format: cell-based, respiratory syncytial virus (RSV); details: human respiratory syncytial virus, HepG2; Hep-G2 cells, RSV A2, mean of at least two experiments
Method in brief: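 RSV A2 (100 PFU/well) premixed with eight serial compound dilutions, added to confluent Hep-G2 monolayers for 2 h at 37° C, then held 2 days under CMC overlay containing compound (DMEM, 2% FBS). Plaques immunostained (HRP/TrueBlue) and counted; EC50 is 50% reduction versus virus control from 4-parameter fit, mean of ≥2 experiments.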

[3] = Dog pharmacokinetics in vivo; details: plasma, male Beagle dogs; for concentration at 8 h: read-out: C 8 h; for AUC(0-t): read-out: PO AUClast
Experimental: The pharmacokinetics of compounds of the invention were studied in vivo in dogs.
Male Beagle dogs were treated with experimental compounds via intravenous administration (n=2; 0.5 mg/kg) or oral administration (n=2; 3 mg/kg or 4 mg/kg). Compounds were formulated as a solution in 20% dimethylacetamide/80% (2-hydroxypropyl)-β-cyclodextrin (20% w/v) (IV administration) or a solution in 10% dimethylacetamide/90% (2-hydroxypropyl)-β-cyclodextrin (20% w/v) (PO administration). […] Serial blood samples were collected from the jugular vein at 0.03, 0.08, 0.25, 0.5, 1, 2, 4, 6, 8 and 24 h post IV dosing of compound, and at 0.08, 0.25, 0.5, 1, 2, 4, 6, 8 and 24 h post oral dosing of compound, and plasma was prepared by centrifugation and stored immediately at −80° C. Samples were subsequently thawed, prepared for analysis by protein precipitation with acetonitrile, and analysed by tandem LCMS using electrospray ionisation using a matrix-matched calibration curve. PK parameters were calculated from the resulting data.

[4] = rat, in vivo, IV 1 mg/kg, PO 10 mg/kg
[5] = rat, in vivo, IV 1 mg/kg, read-out: IV t½ (converted)
[6] = rat, in vivo, PO 10 mg/kg, read-out: PO t½ (converted)
[7] = rat, in vivo, doses 1 mg/kg (IV) and 10 mg/kg (PO)
[8] = IV 0.5 mg/kg, read-out: IV t1/2 (converted)
[9] = PO 4 mg/kg, read-out: PO t1/2 (converted)
[10] = 8 h, doses 1 mg/kg (IV) and 10 mg/kg (PO)

Row | Structure (SMILES) | Vd ([1]; rat, in vivo, IV 1 mg/kg) | clearance ([1]; rat, in vivo, IV 1 mg/kg) | bioavailability [1, 4] | half-life [1, 5] | AUC(0-t) ([1]; rat, in vivo, PO 10 mg/kg) | half-life [1, 6] | Cmax [1, 7] | EC50 (RSV A2) | concentration at 8 h ([3]; Dose: IV/PO 0.5/4 mg/kg) | Cmax ([3]; Dose: IV/PO 0.5/4 mg/kg) | bioavailability ([3]; Dose: IV/PO 0.5/4 mg/kg) | Vd ([3]; IV 0.5 mg/kg) | clearance ([3]; IV 0.5 mg/kg) | half-life [3, 8] | AUC(0-t) ([3]; PO 4 mg/kg) | half-life [3, 9] | C 8 h [1, 10] | half-life [2] | also measured
1 | CCn1ncc(C(=O)N[C@H]2N=C(c3ccccc3)c3ccccc3NC2=O)c1-c1ccc(NC(C)C)nc1F [Example 3, 1-Ethyl-5-[2-fluoro-6-(propan-2-ylamino)pyridin-3-yl]-N-[(3S)-2-oxo-5-phenyl-1,3-dihydro-1,4-benzodiazepin-3-yl]pyrazole-4-carboxamide] | 2.4 L/kg | 13.3 mL/min/kg | 17.1% | 2.2 h | 2070 ng·h/mL | 4.6 h | 199 ng/mL | 97 nM |  |  |  |  |  |  |  |  |  |  | concentration at 8 h ([1]; rat, in vivo, 8 h, doses 1 mg/kg (IV) and 10 mg/kg (PO), read-out: C 8 h): 108 ng/mL; half-life at 1 µM [2]: 45.3 min
2 | CCn1ncc(C(=O)N[C@H]2N=C(c3ccccc3)c3ccccc3NC2=O)c1-c1ccc(NC2CC2)nc1F [Example 4, 1-Ethyl-5-[2-fluoro-6-(cyclopropylamino)pyridin-3-yl]-N-[(3S)-2-oxo-5-phenyl-1,3-dihydro-1,4-benzodiazepin-3-yl]pyrazole-4-carboxamide] | 2 L/kg | 22.7 mL/min/kg | 124% | 1.3 h | 9020 ng·h/mL | 2.2 h | 1340 ng/mL | 42 nM | 56.1 ng/mL | 780 ng/mL | 41.5% | 0.79 L/kg | 10.3 mL/min/kg | 1 h | 2680 ng·h/mL | 2.3 h | 470 ng/mL | 14.4 min | 
3 | O=C(N[C@H]1N=C(c2ccccc2)c2cccc(F)c2NC1=O)c1cnn(C2CCOCC2)c1-c1ccc(NC2CC2)nc1F [Example 21, 5-[6-(Cyclopropylamino)-2-fluoropyridin-3-yl]-N-[(3S)-9-fluoro-2-oxo-5-phenyl-1,3-dihydro-1,4-benzodiazepin-3-yl]-1-(oxan-4-yl)pyrazole-4-carboxamide] | 2.1 L/kg | 18.6 mL/min/kg | 98.2% | 1.7 h | 8180 ng·h/mL | 3.2 h | 1590 ng/mL | 21 nM |  |  |  | 1.3 L/kg | 4.2 mL/min/kg | 7.6 h |  |  | 385 ng/mL | 124 min | concentration at 8 h ([3]; Dose: IV/PO 0.5/3 mg/kg): 146 ng/mL; Cmax ([3]; Dose: IV/PO 0.5/3 mg/kg): 500 ng/mL; bioavailability ([3]; Dose: IV/PO 0.5/3 mg/kg): 33.6%; AUC(0-t) ([3]; PO 3 mg/kg): 3610 ng·h/mL; half-life ([3]; PO 3 mg/kg, read-out: PO t1/2 (converted)): 5.6 h
4 | CC(C)Nc1ccc(-c2c(C(=O)N[C@H]3N=C(c4ccccc4)c4cccc(F)c4NC3=O)cnn2C2CCOCC2)c(F)n1 [Example 22, N-[(3S)-9-fluoro-2-oxo-5-phenyl-1,3-dihydro-1,4-benzodiazepin-3-yl]-5-[2-fluoro-6-(propan-2-ylamino)pyridin-3-yl]-1-(oxan-4-yl)pyrazole-4-carboxamide] | 1.9 L/kg | 10 mL/min/kg | 88.3% | 2.4 h | 14900 ng·h/mL | 2.6 h | 1440 ng/mL | 40 nM | 281 ng/mL | 692 ng/mL | 40.1% | 1.4 L/kg | 4.1 mL/min/kg | 4.9 h | 6050 ng·h/mL | 6.8 h | 734 ng/mL | 88.6 min | 
5 | CCNc1ccc(-c2c(C(=O)N[C@H]3N=C(c4ccccc4)c4cccc(F)c4NC3=O)cnn2C2CCOCC2)c(F)n1 [Example 24, 5-[6-(Ethylamino)-2-fluoropyridin-3-yl]-N-[(3S)-9-fluoro-2-oxo-5-phenyl-1,3-dihydro-1,4-benzodiazepin-3-yl]-1-(oxan-4-yl)pyrazole-4-carboxamide] | 1.4 L/kg | 15 mL/min/kg | 50% | 1.3 h | 5540 ng·h/mL | 3.4 h | 791 ng/mL | 33 nM | 67 ng/mL | 450 ng/mL | 22.7% | 0.86 L/kg | 6.5 mL/min/kg | 1.5 h | 2300 ng·h/mL | 2.4 h | 182 ng/mL | 198 min | 
